“And” between values parts separate entries of the source, which are not always exact repeats. Equal entries are not always repeated.
Key:
[1] = system: liver; test: H&E staining of liver; conditions: mouse, in vivo
Description: (§1) Liver and kidneys were harvested, fixed in PAXgene Tissue FIX (Qiagen, Hilden, Germany) for 1 day at room temperature and kept at 4 °C in PAXgene Tissue STABILIZER (Qiagen) until they were embedded in paraffin for histological studies. Staining was carried out on 4 μm paraffin-embedded tissue sections subsequently deparaffinized in xylene and rehydrated in decreasing alcohol concentrations. Slides were incubated in Mayer’s hematoxylin for 6 min and subsequently in eosin for 3 min. Slides were mounted using Tissue-Tek Prisma (Sakura, Alphen aan den Rijn, The Netherlands). Digital scans of slides were acquired with Nanozoomer NDP (Hamamatsu Photonics, Shizuoka, Japan) and analysed by an experienced clinical pathologist.

[2] = system: EJM xenograft mice; test: Ex vivo biodistribution and time-activity curves; format: in vivo, mouse; conditions: 30 MBq 177Lu-DOTATATE IV ± 10 mM BSO via drinking water, single exponential fit of time-activity curve, n = 1 to 6 mice per group
Description: (§2) Mice experiments were approved by the animal ethics committee of Université Libre de Bruxelles (Comité d’Ethique du Bien-Etre Animal (CEBEA)) and performed according to European guidelines. Female athymic nude Foxn1^nu mice (Charles River) (age = 5 to 6 weeks) were subcutaneously injected in the right flank with 1 × 10^6 EJM cells suspended in 100 µL of PBS and matrigel (1:1; Cultrex™ Basement Membrane Extract, Type 3, R&D Systems). The tumours were allowed to grow for 4 weeks before initiating treatments. At a tumour size of approximately 0.5 cm^3, mice were randomized into 4 treatment groups of 10 mice: control, ^177Lu-DOTATATE, BSO and ^177Lu-DOTATATE + BSO. […] All mice were monitored three times a week for body weight and tumour growth using a calliper. Tumour volume (mm^3) was calculated using the formula π/6 × length × width × height. The relative tumour volume was represented and calculated as (tumour volume on measured day)/(tumour volume measured at baseline). […] Another group of mice receiving ^177Lu-DOTATATE alone or in combination with BSO was sacrificed 24, 72 and 168 h post-injection (p.i.) for ex vivo biodistribution studies and early glutathione quantification (4 mice per group per time point) (Figure 1).

[3] = system: bone marrow; test: Bone marrow smears and cytological assessment; format: in vivo, mouse; conditions: 29 to 38 days p.i.
Description: At the time of sacrifice, bone marrow (BM) was harvested from both femurs (containing hematopoietically active marrow) of the animals. Femurs were excised from each mouse, and then the attached muscle was trimmed from the periosteal surface and the bone was opened at the distal end. BM was isolated using the cytocentrifuge method. In brief, the femur was placed in a 0.5 mL Eppendorf tube pre-punctured with a needle at the base of the tube to form an opening. The 0.5 mL tube was nested within a 1.5 mL Eppendorf tube, and both were centrifuged at 10,000 rpm for 15 s to form a BM pellet at the bottom of the 1.5 mL Eppendorf tube yet to retain the femur within the 0.5 mL tube. • Bone marrow smears and cytological assessment.
BM smears were prepared using the push-slide technique. In brief, one drop of BM was placed at one extremity of a glass slide and was then spread in an even film using a second glass slide (held at an angle) as a spreader. The spreader slide was slid forward the length of the slide to produce a smear. Slides were fixed in absolute methanol for 5 min and then air-dried. May-Grunwald–Giemsa staining was used for routine evaluation of BM cytomorphology. […] A qualitative and quantitative cytological evaluation of all the major lineages was performed by an experienced clinical pathologist on 300 to 500 cells. • Bone marrow apoptosis assessment.

[4] = system: bone marrow; test: Bone marrow apoptosis assessment (Annexin V/7-AAD); format: in vivo, mouse; conditions: mice sacrificed 29 to 38 days post-177Lu-DOTATATE injection; Annexin V/7-AAD flow cytometry; mean ± SEM; 3 to 4 mice per group
Description: At the time of sacrifice, bone marrow (BM) was harvested from both femurs (containing hematopoietically active marrow) of the animals. Femurs were excised from each mouse, and then the attached muscle was trimmed from the periosteal surface and the bone was opened at the distal end. BM was isolated using the cytocentrifuge method. In brief, the femur was placed in a 0.5 mL Eppendorf tube pre-punctured with a needle at the base of the tube to form an opening. The 0.5 mL tube was nested within a 1.5 mL Eppendorf tube, and both were centrifuged at 10,000 rpm for 15 s to form a BM pellet at the bottom of the 1.5 mL Eppendorf tube yet to retain the femur within the 0.5 mL tube. • Bone marrow smears and cytological assessment. BM samples were assayed for apoptosis. A 10 min incubation step at 37 °C with NH4Cl was performed for red blood cell lysis. Samples were then centrifuged for 5 min, and the supernatant containing lysed red blood cells was discarded. Samples were then incubated with Annexin-V Binding Buffer (ThermoFisher, Waltham, MA, USA), Annexin V (BD Biosciences, Franklin Lakes, NJ, USA) and 7-AAD (BD Biosciences, Franklin Lakes, NJ, USA) for 15 min at room temperature. Annexin Buffer was added to samples that were subsequently analysed using a MACSQuant Analyzer 10 Flow Cytometer (Miltenyi Biotec, Bergisch Gladbach, Germany).

[5] = system: kidneys; test: H&E staining of kidneys; conditions: mouse, in vivo
Description: as §1

[6] = Water intake and tolerability in mice; conditions: EJM xenograft nude mice; BSO 10 mM in drinking water; 30 MBq 177Lu-DOTATATE IV
Description: as §2

[7] = system: total glutathione in HT-29 cells; test: Total glutathione quantification, HT-29; format: cell-based, human; conditions: 10^−7 M BSO for 18 h, vs non-treated, n = 6 from 2 independent experiments
Description: (§3) Total glutathione was assessed in cell lines and mice tissues using the Quantification kit for oxidized and reduced glutathione (Sigma), according to the manufacturer’s instructions. Cells in culture were harvested, washed and then lysed with freeze-thaw cycles and subsequently mixed with 5% 5-sulfosalicylic acid. After centrifugation at 8000× g for 10 min, the supernatant was collected, and the 5-sulfosalicylic acid concentration was reduced to 0.5% with water for glutathione quantification. Tumour, liver and kidneys were harvested, snap-frozen in liquid nitrogen and stored at −70 °C until assayed for glutathione. Tissues were homogenized in 5% 5-sulfosalicylic acid in lysing matrix D tubes (MP Biomedicals) containing ceramic beads using a FastPrep-24 homogenizer (MP Biomedicals, Irvine, CA, USA) and centrifuged at 8000× g for 10 min. The supernatant was collected, and the 5-sulfosalicylic acid concentration was reduced to 0.5% with water for glutathione quantification. The buffer solution was added to samples (either from cell lines or tissues) (in triplicates) in a 96-well plate. […] Absorbance was read at 405 nm using a microplate reader (Thermo Labsystems Multiskan EX, ThermoFisher, Waltham, MA, USA). Total glutathione concentration was determined using a calibration curve.

[8] = system: total glutathione in EJM tumours; test: Total glutathione in EJM tumours; format: in vivo, mouse; conditions: BSO 10 mM via drinking water (2 mmol/kg/day), summary in discussion
Description: as §2

[9] = system: total glutathione in COLO-677 cells; test: Total glutathione quantification, COLO-677; format: cell-based, human; conditions: 10^−7 M BSO for 18 h, vs non-treated, n = 6 from 2 independent experiments
Description: as §3

[10] = system: MIA-PACA-2 pancreatic adenocarcinoma cell line; conditions: 5 MBq 177Lu-DOTATATE for 4 h and/or BSO 10^−7 M from the day before irradiation until day 10, crystal violet day 10, % of non-treated, mean ± SEM, n = 12 from 3 independent experiments
[11] = set-up: method as in PMID 27092812, PMID 8270977, PMID 8558205, PMID 9392620; conditions: early-phase clinical studies on solid tumours; cited from earlier work
[12] = system: total glutathione in MM162 cells; test: Total glutathione quantification, MM162; format: cell-based, human; conditions: 10^−7 M BSO for 18 h, vs non-treated, mean ± SEM, n = 6 from 2 independent experiments
Description: as §3

[13] = system: total glutathione in MIA-PACA-2 cells; test: Total glutathione quantification, MIA-PACA-2; format: cell-based, human; conditions: 10^−7 M BSO for 18 h, vs non-treated, mean ± SEM, n = 6 from 2 independent experiments
Description: as §3

[14] = system: COLO-677 multiple myeloma cell line; conditions: 5 MBq 177Lu-DOTATATE for 4 h and/or BSO 10^−7 M from the day before irradiation until day 10, crystal violet day 10, % of non-treated, mean ± SEM, n = 12 from 3 independent experiments
[15] = system: total glutathione in HBL cells; test: Total glutathione quantification, HBL; format: cell-based, human; conditions: 10^−7 M BSO for 18 h, vs non-treated, mean ± SEM, n = 6 from 2 independent experiments
Description: as §3

[16] = system: total glutathione in EJM cells; test: Total glutathione quantification, EJM; format: cell-based, human; conditions: 10^−7 M BSO for 18 h, vs non-treated, mean ± SEM, n = 6 from 2 independent experiments
Description: as §3

[17] = system: EJM multiple myeloma xenograft; test: Tumour growth (calliper), EJM xenograft; format: in vivo, mouse; conditions: 30 MBq 177Lu-DOTATATE IV day 28 and/or 10 mM BSO drinking water 3 weeks, exponential growth fit, [95% CI], 8 to 10 mice per group
Description: as §2

[18] = cited from earlier work
Description: The optimal combination treatment schedule would still have to be determined, which would be the one allowing the use of the minimal effective dose of BSO, i.e., the dose necessary to achieve sufficient tumour GSH depletion to have an efficient tumour radiosensitization, without excessive healthy tissue toxicity. The rapid clearance of BSO (estimated half-life in plasma of less than 2 h) and the rapid rate of GSH turnover would allow one to closely control GSH levels with BSO and allow for a GSH depletion only during tumour irradiation with ^177Lu-DOTATATE, limiting the potential ...

[19] = system: HT-29 colon adenocarcinoma cell line; conditions: 5 MBq 177Lu-DOTATATE for 4 h and/or BSO 10^−7 M from the day before irradiation until day 10, crystal violet day 10, % of non-treated, mean ± SEM, n = 12 from 3 independent experiments
[20] = system: EJM multiple myeloma cell line; conditions: 5 MBq 177Lu-DOTATATE for 4 h and/or BSO 10^−7 M from the day before irradiation until day 10, crystal violet day 10, % of non-treated, mean ± SEM, n = 12 from 3 independent experiments
[21] = system: HBL melanoma cell line; conditions: 5 MBq 177Lu-DOTATATE for 4 h and/or BSO 10^−7 M from the day before irradiation until day 10, crystal violet day 10, % of non-treated, mean ± SEM, n = 12 from 3 independent experiments
[22] = system: MM162 melanoma cell line; conditions: 5 MBq 177Lu-DOTATATE for 4 h and/or BSO 10^−7 M from the day before irradiation until day 10, crystal violet day 10, % of non-treated, mean ± SEM, n = 12 from 3 independent experiments

C[C@@H](O)[C@H](NC(=O)[C@@H]1CSSC[C@H](NC(=O)[C@@H](Cc2ccccc2)NC(=O)CN2CCN(CC(=O)O)CCN(CC(=O)O)CCN(CC(=O)O)CC2)C(=O)N[C@@H](Cc2ccc(O)cc2)C(=O)N[C@H](Cc2c[nH]c3ccccc23)C(=O)N[C@@H](CCCCN)C(=O)N[C@@H]([C@@H](C)O)C(=O)N1)C(=O)O [^177Lu-DOTATATE, metal not drawn]
liver histology (H&E) [1]: No morphological changes were observed
effective half-life in the kidneys [2]: 13.7 h
effective half-life in the liver [2]: 24 h
relative proportion of BM lineages (erythroid, granulocytic, lymphoid), between treatment groups ([3]; BM smears, May-Grunwald–Giemsa, 3 to 4 mice per group): no significant differences
qualitative assessment of BM smears (morphology) ([3]; major BM lineages including megakaryocytes): did not show any morphological abnormalities
BM apoptotic cells [4]: 33.0 ± 2.8%
kidney histology (H&E) [5]: No morphological changes were observed
water intake [6]: 5.2 ± 0.5 mL/day/mouse

CCCCS(=N)(=O)CC[C@H](N)C(=O)O (stereo partly drawn) [BSO, L-Buthionine-(S,R)-Sulfoximine]
change in total glutathione levels [7]: not affected
tumour GSH depletion [8]: ~ 80%
change in total glutathione levels [9]: not affected
cell survival [10]: 87.6 ± 3.8%
liver histology (H&E) [1]: No morphological changes were observed
adverse events caused by BSO alone [11]: only grade 1–2 nausea and vomiting
change in total glutathione levels [12]: −11.1 ± 3.7%
change in total glutathione levels [13]: −20.7 ± 3.5%
cell survival [14]: did not affect cell lines survival
change in total glutathione levels [15]: −21.5 ± 3.0%
change in total glutathione levels [16]: −9.4 ± 2.2%
Tumour doubling time [17]: 7.5 days and 7.5 [6.3 – 9.1] days
kidney histology (H&E) [5]: No morphological changes were observed
estimated half-life in plasma [18]: less than 2 h
cell survival [19]: did not affect cell lines survival
cell survival [20]: did not affect cell lines survival
water intake [6]: 5.6 ± 0.6 mL/day/mouse
cell survival [21]: 81.2 ± 3.8%
cell survival [22]: did not affect cell lines survival

Reference: PMC10137255, “Disturbing the Redox Balance Using Buthionine Sulfoximine Radiosensitized Somatostatin Receptor-2 Expressing Pre-Clinical Models to Peptide Receptor Radionuclide Therapy with ^177Lu-DOTATATE” (Cancers, 2023)
